Data from patent US10407488B2, “Therapy for treatment or prevention of conditions associated with bleeding or hypocoagulation” (THE REGENTS OF THE UNIVERSITY OF CALIFORNIA, priority 2013, dated 2019).

Key:
Balb/c mice [1] = assay: Tail clip bleeding assay, APC-induced bleeding in Balb/c mice; format: in vivo, mouse
Experimental: (§1) Mice were anesthetized with Isoflurane 3%, placed on temperature controlled heating pads (37° C.), and the distal portion of the tail was cut at 1.5 mm diameter after which the tail was immersed in a predefined volume of 37° C. saline (0.9% NaCl) for 20 minutes. To study effects on bleeding and clot stability, tubes were changed after 10 minutes to collect blood for the first and second 10 minutes separately. Blood loss was determined by the hemoglobin concentration in the saline solution after red cell lysis with 2% acetic acid and measured by absorbance at 490 nm. Using a hemoglobin standard derived from defined blood volumes, blood loss was calculated assuming a hematocrit of 46% and expressed in μL/g body weight. Groups of Balb/c mice were injected intravenously (tail vein) with equal volumes (200 μL) of ^superFVa or saline 2 minutes prior to intravenous injection of rhAPC (Xigris®). Immediately after APC injection tail cut was performed. All agents were diluted in sterile sodium chloride 0.9% for injection (Hospira Inc).

Balb/c mice [2] = assay: Liver laceration bleeding assay, APC-induced bleeding in Balb/c mice; format: in vivo
Experimental: Mice were anesthetized with Isofluorane 3% and the abdomen was opened by substernal blunt midline dissection. […] Immediately after laceration mice were positioned prone into a small weighing dish (8 cm diameter) filled with saline (37° C., 13 mL), transferred into the anesthesia chamber which rested on a heating pad (37° C.). Anesthesia was maintained at 3% Isofluorane and dishes were changed after 10 minutes to collect blood for the first and second 10 minutes separately. Blood loss was determined as described for the tail clip model. Groups of Balb/c mice were injected intravenously (tail vein) with equal volumes (200 μL) of ^superFVa or saline 2 minutes prior to intravenous injection of plasma-derived human APC, followed immediately by liver laceration. All agents were diluted in sterile sodium chloride 0.9% for injection (Hospira Inc).

FVIII-deficient mice = assay: Tail clip bleeding assay in FVIII-deficient mice; format: in vivo, mouse; conditions: 20 minutes
Experimental: as §1
(§2) Mice were anesthetized, placed on temperature controlled heating pads (37° C.), and the distal portion of the tail was cut at 1.5 mm diameter after which the tail was immersed in a predefined volume of 37° C. saline (0.9% NaCl) for 20 minutes. Blood loss was determined by the hemoglobin concentration in the saline solution after red cell lysis with 2% acetic acid and measured by absorbance at 405 nm. Using a hemoglobin standard derived from defined blood volumes, blood loss was calculated assuming a hematocrit of 46% and expressed in μL/g body weight. Groups of FVIII-deficient mice were injected intravenously (retro-orbital) within 2 minutes prior to tail cut with equal volumes ([…]) of sterile saline for injection (0.9%, Hospira Inc.), rhFVIII 200 units/kg FVIII (Xyntha®, Pfizer, NY, N.Y., USA) ^superFVa, rhFVIIa (NovoSeven®, NovoNordisk, Bagsvaerd, Denmark) or a combination of ^superFVa and rhFVIIa. All agents were diluted in sterile sodium chloride 0.9% for injection (Hospira Inc). […]

[3] = tested on: Balb/c mice treated with anti-FVIII antibodies; assay: Tail clip bleeding assay in Balb/c mice treated with anti-FVIII antibodies; format: in vivo, mouse; conditions: 20 minutes
Experimental: as §2
To further elucidate the efficiency of ^superFVa to reduce bleeding in presence of inhibitors for FVIII either alone or in combination with rhFVIIa, blood loss during a 20 minute bleeding period was determined in a tail transection model in Balb/c mice treated with anti-FVIII antibodies (0.25 mg/kg). […]

[4] = tested on: thrombin generation in normal human plasma; assay: Thrombin generation in NHP in the presence of rivaroxaban or apixaban; format: biochemical; conditions: factor alone: rhFVIIa 2 μg/ml, ^superFVa 400 nM; NOAC 200 nM
Experimental: Thrombin generation or Endogenous Thrombin Potential (ETP) assays were performed as described. Briefly, plasma samples supplemented with CTI, TF, PCPS were preincubated […] in the presence or absence of rivaroxaban, apixaban, Kcentra®, NovoSeven® or ^superFVa. Thrombin generation was initiated by addition of CaCl2 and Z-Gly-Gly-Arg-AMC in HBS/0.5% BSA. The final reaction mixture contained, 50% plasma, 0.725 μM CTI, 0.2 Pm TF, 4 μM PCPS vesicles, 0.5 mM Z-GGR-AMC, 7.6 mM CaCl2 in a total volume of 100 μl. Concentrations of rivaroxaban, apixaban, Kcentra®, NovoSeven® or ^superFVa are indicated in the result section and in the figure legends. Fluorescence was measured at excitation/emission wavelengths of […] using Gemini EM fluorescent plate reader (Molecular Devices). Fluorescence time course data were converted to Nm thrombin as described. ETP, defined as the area under the curve (AUC) and the peak height were determined using Origin software.

Substance “^superFVa: engineered APC-resistant FVa variant (SEQ ID NO:4): R306Q, R506Q, R679Q, Cys609-Cys1691 disulfide, S2183A, B-domain deleted” has a mean blood loss (Balb/c mice [1]; ^superFVa 5 U/mL 2 minutes prior to APC 1.25 mg/kg, 20 minutes) of 21 µL/g, a mean blood loss (Balb/c mice [1]; ^superFVa 25 U/mL 2 minutes prior to APC 1.25 mg/kg, 20 minutes) of 9.2 µL/g and a mean blood loss (Balb/c mice [1]; ^superFVa 25 U/mL + APC, first 10 minutes) of 4.3 µL/g. For the same substance, the mean blood loss (Balb/c mice [1]; ^superFVa 25 U/mL + APC, second 10 minutes) was 4.8 µL/g, the mean blood loss (Balb/c mice [1]; ^superFVa iv 3.5 mg/kg 2 min prior to wt APC 1.25 mg/kg) was 9.2 µL/g and the mean blood loss (Balb/c mice [2]; ^superFVa (25 U/mL) prior to APC 1.25 mg/kg, 20 minutes after liver laceration) was 29 µL/g. For the same substance, the bleeding-induced mortality (Balb/c mice [2]; ^superFVa prior to APC, liver laceration) was “abolished bleeding-induced mortality”, the “bleeding during the 2nd 10 min phase” value (Balb/c mice [2]; ^superFVa prior to wt APC, liver laceration) was “fully prevented bleeding” and the mean blood loss (FVIII-deficient mice; ^superFVa 10 U/kg iv) was 25.9 µL/g. For the same substance, the mean blood loss (FVIII-deficient mice; ^superFVa 40 U/kg iv) was 9.7 µL/g, the mean blood loss (FVIII-deficient mice; ^superFVa 200 U/kg iv) was 2.5 µL/g and the blood loss ([3]; ^superFVa 10 U/kg) was 19.47 µL/g. For the same substance, the blood loss ([3]; ^superFVa 40 U/kg) was 9.97 µL/g and the “ability to enhance the ETP of NHP suppressed with rivaroxaban or apixaban” value [4] was “nor ^superFVa at high concentration (400 nM) were able to enhance the ETP”.
